# Measurements taken from EP2526945A1, “New CRTH2 Antagonists” (Almirall, S.A., priority 2011, dated 2012).
# pIC50: −log10 of the molar value.
# Biological target: T1, CRTh2 receptor (Homo sapiens, UniProt Q9Y5Y4)
# T1 construct: expressed in transfected cells; host or cells: CHO.K1 cells (membranes)
# T1 sequence (Q9Y5Y4 1-395): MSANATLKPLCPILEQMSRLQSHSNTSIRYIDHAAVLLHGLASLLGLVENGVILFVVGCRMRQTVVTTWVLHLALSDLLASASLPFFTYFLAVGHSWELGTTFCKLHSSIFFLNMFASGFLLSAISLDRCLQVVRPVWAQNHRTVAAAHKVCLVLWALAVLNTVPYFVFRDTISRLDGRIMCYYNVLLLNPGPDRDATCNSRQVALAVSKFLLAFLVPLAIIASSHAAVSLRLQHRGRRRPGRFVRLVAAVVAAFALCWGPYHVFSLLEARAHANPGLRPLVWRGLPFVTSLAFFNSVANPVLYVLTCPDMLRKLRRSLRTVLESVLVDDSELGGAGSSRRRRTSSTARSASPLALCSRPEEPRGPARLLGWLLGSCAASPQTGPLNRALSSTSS
# Test: CRTh2 GTPγS antagonism binding assay
# Format: biochemical
# Conditions: membranes from CHO.K1 cells stably overexpressing the CRTh2 receptor; PGD2 at 50 nM (EC80); [35S]-GTPγS as radioligand; read-out: GTPγ Binding
# Description: CRTh2 GTPγS antagonism binding assay
# The assay is performed using membranes obtained from CHO.K1 cells stably overexpressing the CRTh2 receptor and [^35S]-GTPγS as radioligand. Assay is performed pre-incubating 4-8 µg of membranes per well with the compound to be tested for 1 h, followed by incubation with PGD2 at 50 nM (EC80), 0.1 nM [^35S]-GTPγS in incubation buffer (20 mM HEPES, 10 mM MgCl2, 100 mM NaCl, 10 µM GDP, 10 µg/ml Saponine and 0.2% BSA) for 2 h at room temperature. The reaction is terminated by filtering in GF/C plates pre-treated with 20 mM HEPES, 10 mM MgCl2, 100 mM NaCl and washing 6 times with wash buffer (20 mM NaH2PO4, 20 mM Na2HPO4). After washing, plates are dried and scintillation buffer Optiphase added. The radioactivity retained in the filter is counted using a Microbeta liquid scintillation counter.
row,pIC50,Compound
1,8.49,"Cc1c(Cc2ccccc2S(=O)(=O)c2ccc(F)cc2)c2c(n1CC(=O)O)CCNC2=O [Example 4, (3-{2-[(4-Fluorophenyl)sulfonyl]benzyl}-2-methyl-4-oxo-4,5,6,7-tetrahydro-1H-pyrrolo[3,2-c]pyridin-1-yl)acetic acid]"
2,8.44,"COc1ccc(S(=O)(=O)c2ccccc2)c(Cc2c3c(n(CC(=O)O)c2C)CCNC3=O)c1 [Example 6, {3-[5-Methoxy-2-(phenylsulfonyl)benzyl]-2-methyl-4-oxo-4,5,6,7-tetrahydro-1H-pyrrolo[3,2-c]pyridin-1-yl}acetic acid]"
3,8.40,"Cc1c(Cc2ccccc2S(=O)(=O)c2cccc(Cl)c2)c2c(n1CC(=O)O)CCNC2=O [Example 8, (3-{2-[(3-Chlorophenyl)sulfonyl]benzyl}-2-methyl-4-oxo-4,5,6,7-tetrahydro-1H-pyrrolo[3,2-c]pyridin-1-yl)acetic acid]"
4,7.89,"Cc1c(Cc2ccc(C(F)(F)F)cc2S(=O)(=O)c2ccccc2)c2c(n1CC(=O)O)CCNC2=O [Example 10, {2-Methyl-4-oxo-3-[2-(phenylsulfonyl)-4-(trifluoromethyl)benzyl]-4,5,6,7-tetrahydro-1H-pyrrolo[3,2-c]pyridin-1-yl}acetic acid]"
5,8.21,"Cc1c(Cc2ccccc2S(=O)(=O)c2cccc(F)c2)c2c(n1CC(=O)O)CCNC2=O [Example 12, (3-{2-[(3-Fluorophenyl)sulfonyl]benzyl}-2-methyl-4-oxo-4,5,6,7-tetrahydro-1H-pyrrolo[3,2-c]pyridin-1-yl)acetic acid]"
6,8.08,"Cc1c(Cc2ccccc2S(=O)(=O)c2ccc(Cl)cc2)c2c(n1CC(=O)O)CCNC2=O [Example 14, (3-{2-[(4-Chlorophenyl)sulfonyl]benzyl}-2-methyl-4-oxo-4,5,6,7-tetrahydro-1H-pyrrolo[3,2-c]pyridin-1-yl)acetic acid]"
7,8.41,"COc1ccc(S(=O)(=O)c2ccccc2Cc2c3c(n(CC(=O)O)c2C)CCNC3=O)cc1 [Example 15, (3-{2-[(4-Methoxyphenyl)sulfonyl]benzyl}-2-methyl-4-oxo-4,5,6,7-tetrahydro-1H-pyrrolo[3,2-c]pyridin-1-yl)acetic acid]"
8,8.16,"Cc1c(Cc2ccccc2S(=O)(=O)c2ccc(OC(F)(F)F)cc2)c2c(n1CC(=O)O)CCNC2=O [Example 16, [2-Methyl-4-oxo-3-(2-{[4-(trifluoromethoxy)phenyl]sulfonyl}benzyl)-4,5,6,7-tetrahydro-1H-pyrrolo[3,2-c]pyridin-1-yl]acetic acid]"
9,8.44,"Cc1c(Cc2ccccc2S(=O)(=O)c2ccccc2F)c2c(n1CC(=O)O)CCNC2=O [Example 17, (3-{2-[(2-Fluorophenyl)sulfonyl]benzyl}-2-methyl-4-oxo-4,5,6,7-tetrahydro-1H-pyrrolo[3,2-c]pyridin-1-yl)acetic acid]"
10,8.04,"Cc1c(Cc2ccccc2S(=O)(=O)c2ccccc2)c2c(n1[C@H](C)C(=O)O)CCNC2=O [Example 20, (2R)-2-{2-Methyl-4-oxo-3-[2-(phenylsulfonyl)benzyl]-4,5,6,7-tetrahydro-1H-pyrrolo [3,2-c]pyridin-1-yl}propanoic acid]"
11,7.70,"COc1cccc(Cc2c3c(n(CC(=O)O)c2C)CCNC3=O)c1S(=O)(=O)c1ccccc1 [Example 21, {3-[3-Methoxy-2-(phenylsulfonyl)benzyl]-2-methyl-4-oxo-4,5,6,7-tetrahydro-1H-pyrrolo[3,2-c]pyridin-1-yl}acetic acid]"
12,7.57,"Cc1c(Cc2ccccc2S(=O)(=O)C2CCCCC2)c2c(n1CC(=O)O)CCNC2=O [Example 23, {3-[2-(Cyclohexylsulfonyl)benzyl]-2-methyl-4-oxo-4,5,6,7-tetrahydro-1H-pyrrolo[3,2-c]pyridin-1-yl}acetic acid]"
13,7.70,"Cc1c(Cc2ccccc2S(=O)(=O)N2CCOCC2)c2c(n1CC(=O)O)CCNC2=O [Example 24, {2-Methyl-3-[2-(morpholin-4-ylsulfonyl)benzyl]-4-oxo-4,5,6,7-tetrahydro-1H-pyrrolo[3,2-c]pyridin-1-yl}acetic acid]"
14,8.27,"Cc1c(Cc2ccccc2S(=O)(=O)c2ccccc2)c2c(n1CC(=O)O)CCN(C)C2=O [Example 27, {2,5-Dimethyl-4-oxo-3-[2-(phenylsulfonyl)benzyl]-4,5,6,7-tetrahydro-1H-pyrrolo[3,2-c]pyridin-1-yl}acetic acid]"
15,7.96,"COC(=O)c1ccc(Cc2c3c(n(CC(=O)O)c2C)CCNC3=O)c(S(=O)(=O)c2ccccc2)c1 [Example 28, {3-[4-(Methoxycarbonyl)-2-(phenylsulfonyl)benzyl]-2-methyl-4-oxo-4,5,6,7-tetrahydro-1H-pyrrolo[3,2-c]pyridin-1-yl}acetic acid]"
16,7.74,"Cc1c(Cc2ccc(C(=O)O)cc2S(=O)(=O)c2ccccc2)c2c(n1CC(=O)O)CCNC2=O [Example 29, 4-{[1-(Carboxymethyl)-2-methyl-4-oxo-4,5,6,7-tetrahydro-1H-pyrrolo[3,2-c]pyridin-3-yl]methyl}-3-(phenylsulfonyl)benzoic acid]"
17,8.02,"CNC(=O)c1ccc(Cc2c3c(n(CC(=O)O)c2C)CCNC3=O)c(S(=O)(=O)c2ccccc2)c1 [Example 31, {2-Methyl-3-[4-[(methylamino)carbonyl]-2-(phenylsulfonyl)benzyl]-4-oxo-4,5,6,7-tetrahydro-1H-pyrrolo[3,2-c]pyridin-1-yl}acetic acid]"
18,7.92,"COc1cccc(S(=O)(=O)c2ccccc2Cc2c3c(n(CC(=O)O)c2C)CCNC3=O)c1 [Example 34, (3-{2-[(3-Methoxyphenyl)sulfonyl]benzyl}-2-methyl-4-oxo-4,5,6,7-tetrahydro-1H-pyrrolo[3,2-c]pyridin-1-yl)acetic acid]"
19,8.82,"Cc1c(Cc2ccccc2S(=O)(=O)c2ccccc2)c2c(n1CC(=O)O)CCN(Cc1ccccc1)C2=O [Example 36, {5-Benzyl-2-methyl-4-oxo-3-[2-(phenylsulfonyl)benzyl]-4,5,6,7-tetrahydro-1H-pyrrolo[3,2-c]pyridin-1-yl}acetic acid]"
20,8.43,"Cc1c(Cc2cc(F)ccc2S(=O)(=O)c2ccccc2)c2c(n1CC(=O)O)CCNC2=O [Example 37, {3-[5-Fluoro-2-(phenylsulfonyl)benzyl]-2-methyl-4-oxo-4,5,6,7-tetrahydro-1H-pyrrolo[3,2-c]pyridin-1-yl}acetic acid]"
21,8.54,"Cc1c(Cc2ccc(S(=O)(=O)Cc3ccccc3)cc2)c2c(n1CC(=O)O)CCNC2=O [Example 39, {3-[4-(Benzylsulfonyl)benzyl]-2-methyl-4-oxo-4,5,6,7-tetrahydro-1H-pyrrolo[3,2-c]pyridin-1-yl}acetic acid]"
22,8.41,"Cc1c(Cc2cc(Br)ccc2S(=O)(=O)c2ccccc2)c2c(n1CC(=O)O)CCNC2=O [Example 42, {3-[5-Bromo-2-(phenylsulfonyl)benzyl]-2-methyl-4-oxo-4,5,6,7-tetrahydro-1H-pyrrolo[3,2-c]pyridin-1-yl}acetic acid]"
23,8.23,"Cc1c(Cc2cccn2S(=O)(=O)c2ccccc2)c2c(n1CC(=O)O)CCNC2=O [Example 44, (2-Methyl-4-oxo-3-{[1-(phenylsulfonyl)-1H-pyrrol-2-yl]methyl}-4,5,6,7-tetrahydro-1 H-pyrrolo[3,2-c]pyridin-1-yl)acetic acid]"

row,Compound,pIC50
1,"Cc1c(Cc2ccccc2S(=O)(=O)c2ccccc2)c2c(n1CC(=O)O)CCNC2=O [Example 2, {2-Methyl-4-oxo-3-[2-(phenylsulfonyl)benzyl]-4,5,6,7-tetrahydro-1H-pyrrolo[3,2-c]pyridin-1-yl}acetic acid]",8.34
